{"source": "patent US5876676A", "about": "“Preservation of blood platelets” (priority 1996, dated 1999)", "key": {"[1]": {"tested_on": "barbed end of actin filaments", "test": "Pyrene-labeled actin assembly (nucleation) assay in detergent lysates of resting and thrombin-activated platelets", "assay_type": "biochemical, human", "experimental": "The effect of cell lysates on the rate and extent of pyrene-labeled rabbit skeletal muscle actin was determined as described previously (Hartwig, J., and P. Janmey, 1989 Biochim. Biophys. Acta. 1010:64-71). Suspensions of resting or thrombin-activated cells at concentrations of 1.4×10^8 /ml were permeabilized by the addition of 0.1 volume of 60 mM Pipes, 25 mM Hepes, 10 mM EGTA, 2 mM MgCl2, 0.75% Triton and 42 nM leupeptin, 10 mM benzamidine, and 0.123 mM aprotinin to inhibit proteases (Schliwa, J., et al., 1981 Proc. Natl. Acad. Sci. USA 80:5417-5420). 100 ul of detergent lysate was added to 190 ul of 100 mM KCl, 2 mM MgCl2, 0.5 mM ATP, 0.1 mM EGTA, 0.5 mM dithiothreitol, and 10 mM Tris, pH 7.0 and the polymerization rate assay was started by the addition of monomeric pyrene-labeled rabbit skeletal muscle actin to a final concentration of 2 uM. The relative contribution of nuclei with barbed or pointed ends in the cell lysates was determined by adding 2 uM cytochalasin B to the pyrene nucleation assay system. […] Activity not inhibited by cytochalasin B is considered pointed end assembly. […] To determine if the measured stimulation of actin assembly and its decay with time was due to the growth of pyrene-actin addition onto cellular filaments subject to depolymerization in the diluted lysate, 0.1 uM phalloidin or phallacidin was added to the cell lysates during their preparation to stabilize the filaments. […] However, we also determined that the soluble phase from cells permeabilized with detergent in the presence of EGTA contained calcium dependent nucleation activity. […] The amount of pointed end activity in these soluble extracts was determined by adding a final concentration of 2 uM cytochalasin B to the pyrene-actin assembly assay.\nIn reference to Table I, gel-filtered platelets were suspended to a concentration of 1.4×10^8 /ml in platelet buffer, rested for 30 minutes at 37° C., and then treated with or without 1 U/ml of thrombin for 15 s. […] Data are expressed as mean±SD, n=4."}, "[2]": {"tested_on": "pointed end actin nuclei in soluble fraction of platelet lysates", "test": "Calcium-sensitive soluble nucleation activity in supernatants of platelet lysates (pyrene-actin assembly)", "assay_type": "biochemical, human", "experimental": "The effect of cell lysates on the rate and extent of pyrene-labeled rabbit skeletal muscle actin was determined as described previously (Hartwig, J., and P. Janmey, 1989 Biochim. Biophys. Acta. 1010:64-71). Suspensions of resting or thrombin-activated cells at concentrations of 1.4×10^8 /ml were permeabilized by the addition of 0.1 volume of 60 mM Pipes, 25 mM Hepes, 10 mM EGTA, 2 mM MgCl2, 0.75% Triton and 42 nM leupeptin, 10 mM benzamidine, and 0.123 mM aprotinin to inhibit proteases (Schliwa, J., et al., 1981 Proc. Natl. Acad. Sci. USA 80:5417-5420). 100 ul of detergent lysate was added to 190 ul of 100 mM KCl, 2 mM MgCl2, 0.5 mM ATP, 0.1 mM EGTA, 0.5 mM dithiothreitol, and 10 mM Tris, pH 7.0 and the polymerization rate assay was started by the addition of monomeric pyrene-labeled rabbit skeletal muscle actin to a final concentration of 2 uM. The relative contribution of nuclei with barbed or pointed ends in the cell lysates was determined by adding 2 uM cytochalasin B to the pyrene nucleation assay system. […] Activity not inhibited by cytochalasin B is considered pointed end assembly. The stability of nucleation activity in cell lysates was tested by comparing the stimulatory effect of fresh lysate on actin assembly with lysates allowed to stand for 30 s to 30 min at 37° C. before addition to the assembly assay. To determine if the measured stimulation of actin assembly and its decay with time was due to the growth of pyrene-actin addition onto cellular filaments subject to depolymerization in the diluted lysate, 0.1 uM phalloidin or phallacidin was added to the cell lysates during their preparation to stabilize the filaments. As shown in the results, all nucleation activity present in resting and activated cells was associated with the detergent-insoluble cytoskeleton. However, we also determined that the soluble phase from cells permeabilized with detergent in the presence of EGTA contained calcium dependent nucleation activity. Detergent lysates from resting and thrombin-activated cells (30 s, 1 U/ml) were centrifuged at 10,000 g for 2 min at room temperature in a microcentrifuge. The supernatant was removed and added to the pyrene-based nucleation assay in the presence of 1 mM EGTA or CaCl2. The amount of pointed end activity in these soluble extracts was determined by adding a final concentration of 2 uM cytochalasin B to the pyrene-actin assembly assay.\nIn reference to Table II, lysates were prepared from resting thrombin-treated cells with detergent and centrifuged in a Sorvall Microspin 12S at 13,000 rpm for 1 min. Nucleation activity remaining in the supernatant after removal of the cytoskeletal fraction was determined. […] The data are expressed as mean±SD, n=4. […]"}, "[3]": {"tested_on": "mice", "settings": "cited from earlier work"}, "[4]": {"tested_on": "platelets", "test": "Nucleation activity of cytoskeletons from platelets pre-incubated with cytochalasin B (pyrene-actin assembly, Table III)", "assay_type": "cell-based, human", "settings": "for Assembly rate (barbed end): cytochalasin washed out; for Assembly rate (barbed end) / Assembly rate (pointed end): n=4", "experimental": "The effect of inhibiting barbed end actin assembly in thrombin-activated cells before detergent lysis on the amount of nucleation activity was determined by preincubating resting platelet suspensions with 2 uM cytochalasin B for 5 min. Because it was necessary to wash out the cytochalasin B from some of the cytoskeletons before addition of the cell lysates to the pyrene assembly assay, the cells were first attached to glass coverslips while still in the presence of cytochalasin B. This was accomplished by sedimenting 0.3 ml of cell suspension onto a 12 mm round glass coverslip for 5 min at 250 g. Individual coverslips were removed, treated with thrombin for 15 s in the presence of cytochalasin B, permeabilized with 1× PHEM-Triton buffer containing 2 uM cytochalasin B for 15 s and then washed in PHEM buffer in the presence or absence of cytochalasin B. Coverslips were then immediately assayed for their ability to promote actin filament assembly as previously described by us using glass adherent macrophage cytoskeletons (Hartwig, J., and P. Janmey, 1989 Biochim. Biophys. Acta. 1010:64-71).\nIn reference to Table III, resting platelets were incubated with 2 μM cytochalasin B for 5 min, then adhered by centrifugation to 12-mm round glass coverslips coated with polylysine. Cells on the coverslips were exposed to 1 U/ml of thrombin for 30 s in the presence of cytochalasin B and then permeabilized with PHEM-Triton buffer. […] There were 4.2×10^7 platelets per assay. The data are expressed as mean ± SD, n=4. The barbed end assembly rate, initial pointed end addition rate and initial barbed end addition rate were as described in Table I."}, "[5]": {"tested_on": "cells in vitro", "settings": "cited from earlier work"}, "[6]": {"settings": "following intracellular microinjection; cited from earlier work"}, "[7]": {"settings": "Activated (thrombin), + 2 μM CB, supernatant, mean±SD, n=4"}, "[8]": {"settings": "Activated: 2 μM cytochalasin B, 1 U/ml thrombin 30 s"}, "[9]": {"settings": "Activated: 2 μM cytochalasin B, then 1 U/ml thrombin 30 s"}, "[10]": {"settings": "Resting platelets incubated with 2 μM cytochalasin B"}, "[11]": {"settings": "Resting platelets incubated with 2 μM cytochalasin B 5 min"}}}
{"smiles": "C=C1C(C)C2C(Cc3ccccc3)NC(=O)C23OC(=O)C=CC(O)CCCC(C)CC=CC3C1O", "note": "(stereo not shown) [cytochalasin B]", "values": [{"measurement": "Pyrene actin assembly onto actin filaments at the barbed end", "setting": "[1]; 2 uM cytochalasin B", "result": "completely inhibited"}, {"measurement": "Stimulatory effect of lysates on pyrene-actin assembly rate", "setting": "[1]; 2 uM cytochalasin B added to assay, lysates of platelets activated with 1 U/ml thrombin", "result": "abolished"}, {"measurement": "Effect on nucleation activity of lysates from resting cells", "setting": "[1]; 2 uM cytochalasin B added to lysates, resting platelets", "result": "only a small effect"}, {"measurement": "Calcium-dependent soluble actin nucleation activity", "setting": "[2]; 2 uM cytochalasin B, soluble fraction, thrombin-activated platelets", "result": "completely unaffected"}, {"measurement": "Assembly Rate", "setting": "[2]; [7]", "result": "0.55 ± 0.02", "unit": "nM/s"}, {"measurement": "Pointed nuclei/platelet", "setting": "[2]; [7]", "result": "5,000 ± 250"}, {"measurement": "Subunits added to pointed ends", "setting": "[2]; [7]", "result": "1.0 ± 0.05 ×10^10 s^-1"}, {"measurement": "LD50", "setting": "[3]; intraperitoneal", "result": 50, "unit": "mg/kg"}, {"measurement": "Time to clearance from all tissues but liver", "setting": "[3]; intraperitoneal", "result": "≤ 24", "unit": "h"}, {"measurement": "Recovery of injected cytochalasin B", "setting": "[3]; within a few minutes following injection", "result": 35, "unit": "%"}, {"measurement": "Nucleation activity after cytochalasin B treatment of resting cells", "setting": "[4]; 2 μM cytochalasin B, resting platelets", "result": "did not by itself result in nucleation activity"}, {"measurement": "Barbed nuclei/platelet", "setting": "[4]; [8]", "result": 380}, {"measurement": "Pointed nuclei/platelet", "setting": "[4]; [8]", "result": "1,980"}, {"measurement": "Subunits added to barbed ends", "setting": "[4]; [8]", "result": "3.9e+11", "unit": "s⁻¹"}, {"measurement": "Subunits added to pointed ends", "setting": "[4]; [8]", "result": "9.95e+10", "unit": "s⁻¹"}, {"measurement": "Assembly rate (barbed end)", "setting": "[4]; [9]", "result": 1.59, "unit": "nM/s"}, {"measurement": "Assembly rate (pointed end)", "setting": "[4]; [9]", "result": 0.55, "unit": "nM/s"}, {"measurement": "Barbed nuclei/platelet", "setting": "[4]; [10]", "result": 50}, {"measurement": "Pointed nuclei/platelet", "setting": "[4]; [10]", "result": "1,980"}, {"measurement": "Subunits added to barbed ends", "setting": "[4]; [10]", "result": "2e+10", "unit": "s⁻¹"}, {"measurement": "Subunits added to pointed ends", "setting": "[4]; [10]", "result": "9.95e+10", "unit": "s⁻¹"}, {"measurement": "Assembly rate (barbed end)", "setting": "[4]; [11]", "result": 0.18, "unit": "nM/s"}, {"measurement": "Assembly rate (pointed end)", "setting": "[4]; [11]", "result": 0.55, "unit": "nM/s"}, {"measurement": "Stimulation of pyrene-actin assembly rate by thrombin-activated, cytochalasin B-treated cytoskeletons compared with resting cells incubated with cytochalasin B", "setting": "[4]; cytochalasin present during activation, washed away before assay", "result": "four-fold"}, {"measurement": "MNTC", "setting": "[5]; 2 h", "result": "≤ 200", "unit": "µM"}, {"measurement": "Non-cytotoxic concentration", "setting": "[5]; 2 h", "result": "up to 100 ug/ml"}, {"measurement": "Cytotoxicity on prolonged exposure", "setting": "[5]", "result": "reversible cytotoxicity"}]}
{"smiles": "O=C(O)CN(CC(=O)O)c1ccccc1OCCOc1ccccc1N(CC(=O)O)CC(=O)O", "note": "[BAPTA, 1,2-bis(2-aminophenoxy) ethane N,N,-N',N'-tetraacetic acid]", "values": [{"measurement": "Binding to membranes or toxic effects", "setting": "[6]", "result": "little or no"}]}
